# Experimental data: US10350199B2, “3-(1h-pyrrolo[2,3-b]pyridin-2-yl)-1h-indazoles and therapeutic uses thereof” (Samumed, LLC, priority 2015, dated 2019)
# Assays:
# Assay type in all cases: cell-based
# [1] = tested on: SW480 colon cancer cells; assay: Cell viability assay (CellTiter-Blue), SW480 cells, four days; settings: Homo sapiens; for EC50: 96 h, SW480 cell viability, four days, CellTiter-Blue; for inhibition at 10 µM: SW480, read-out: percent inhibition at 10 μM
# Summary of the method: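 Fluorescence from resazurin reduced to resorufin by metabolically active cells was the read-out, taken after ~3 h with CellTiter-Blue.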
# [2] = tested on: primary human fibroblasts derived from IPF patients (LL29 cells) treated with TGF-β1; assay: Inhibition of the fibrotic process: αSMA staining in TGF-β1 treated LL29 fibroblasts; settings: Fibroblast; for EC50: 96 h, LL29 cells, TGF-β1 20 ng/mL, 4 days, % αSMA positive cells; for inhibition at 10 µM: read-out: percent inhibition at 10 μM
# Summary of the method: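 IPF-patient-derived LL29 lung fibroblasts in F12 with 1% FBS, stimulated with TGF-β1 alongside compound; TGF-β1 plus DMSO wells served as controls. After 4 days, nuclei stained with 1 μM SYTOX green for 30 min at room temperature, alongside αSMA staining.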
# [3] = tested on: primary human mesenchymal stem cells (hMSCs); assay: Induction of chondrogenesis in human mesenchymal stem cells (nodule area, Rhodamine B/Nile Red); settings: hMSC chondrogenesis; for EC50: concentration required to induce 50% levels of chondrogenesis of TGF-β3 positive control, read-out: Conc (nM) of 50% TGF-β3 activity; for Emax: relative to TGF-β3 (10 ng/mL) positive control, read-out: Max. Activity as % TGF-β3 activity
# From the text: Representative compounds were screened using primary human mesenchymal stem cells (hMSCs) to determine their ability to induce chondrogenesis (process by which cartilage is developed).
# Primary human mesenchymal stem cells (hMSCs) were purchased from Lonza (Walkersville, Md.) and expanded in Mesenchymal Stem Cell Growth Media (Lonza). Cells between passage 3 and 6 were used for the experiments.
# Area of nodules in each well was normalized to the average of 3 DMSO treated wells on the same plate using Excel (Microsoft Inc.). The normalized averages (fold change over DMSO) of 2 or 3 replicate wells for each compound concentration were calculated. Due to solubility limitations of some of the compounds, curve fitting was incomplete leading to inaccurate EC50 determinations.
# Using TGF-β3 as a positive control, the concentration of representative compounds required to induce 50% levels of chondrogenesis is reported. In addition, the maximum activity of each compound and the respective dose that each compound reached maximum chondrogenesis activity is reported.
# [4] = tested on: Wnt activity (Sp5-Luc reporter, SW480 colon carcinoma cells); assay: Wnt activity screening assay, Sp5-Luc reporter gene in SW480 cells; settings: Homo sapiens; for EC50: Sp5-Luc reporter, SW480 cells, overnight incubation; for inhibition at 10 µM: SW480, read-out: percent inhibition at 10 μM
# Summary of the method: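 SW480 cells stably transduced with lentiviral Sp5 promoter (eight TCF/LEF sites)-firefly luciferase, plated at 4,000 cells/well in 1% FBS medium and incubated overnight at 37° C. Luminescence read after BrightGlo addition, normalized to DMSO-only cells; EC50 from four-parameter variable-slope nonlinear regression.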
# [5] = tested on: IL-6 (THP-1 human monocyte cell line); assay: IL-6 inhibition in LPS-stimulated THP-1 cells (HTRF); settings: for EC50: IL-6 inhibition, LPS-stimulated THP-1 cells, HTRF; for inhibition at 10 µM: THP-1, read-out: percentage in parentheses beside EC50 >10 (IL-6 inhibition)
# Summary of the method: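 THP-1 cells kept 24 h in 1% FBS medium, treated 2 h at 37 °C, then stimulated with 500 ng/mL LPS for another 22 h. IL-6 measured by HTRF as the 665/620 nm ratio; EC50 from a four-parameter fit normalized to DMSO controls.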
SMILES,EC50 [1],EC50 [2],EC50 [3],Emax [3],EC50 [4],EC50 [5],inhibition at 10 µM [1],inhibition at 10 µM [2],inhibition at 10 µM [4],inhibition at 10 µM [5]
"CC(C)C(=O)Nc1cncc(-c2ccc3[nH]nc(-c4cc5cccnc5[nH]4)c3c2)c1 [Compound 261, N-(5-(3-(1H-Pyrrolo[2,3-b]pyridin-2-yl)-1H-indazol-5-yl)pyridin-3-yl) isobutyramide]",405 nM,102 nM,900 nM,131%,178 nM,9 nM,–,–,–,–
"O=C(Nc1cncc(-c2ccc3[nH]nc(-c4cc5c(-c6ccncc6)ccnc5[nH]4)c3c2)c1)C1CCC1 [Compound 133, N-(5-(3-(4-(Pyridin-4-yl)-1H-pyrrolo[2,3-b]pyridin-2-yl)-1H-indazol-5-yl)pyridin-3-yl)cyclobutanecarboxamide]",> 10000 nM,> 10000 nM,900 nM,73%,> 10000 nM,> 10000 nM,6.4%,0%,2.8%,33.3%
"c1cc(-c2ccsc2)c2cc(-c3n[nH]c4ccc(-c5cncc(CN6CCCCC6)c5)cc34)[nH]c2n1 [Compound 295, 5-(5-(Piperidin-1-ylmethyl)pyridin-3-yl)-3-(4-(thiophen-3-yl)-1H-pyrrolo[2,3-b]pyridin-2-yl)-1H-indazole]",> 10000 nM,> 10000 nM,30 nM,73%,> 10000 nM,> 10000 nM,2.1%,16.8%,37.1%,34.9%
"Cc1ccncc1-c1ccc2[nH]nc(-c3cc4c(-c5ccccc5F)ccnc4[nH]3)c2c1 [Compound 61, 3-(4-(2-Fluorophenyl)-1H-pyrrolo[2,3-b]pyridin-2-yl)-5-(4-methylpyridin-3-yl)-1H-indazole]",> 10000 nM,450 nM,30 nM,54%,> 10000 nM,> 10000 nM,14.9%,–,3.5%,22.7%
"c1cnc2[nH]c(-c3n[nH]c4ccc(-c5cncc(OCCN6CCCC6)c5)cc34)cc2c1 [Compound 658, 5-(5-(2-(Pyrrolidin-1-yl)ethoxy)pyridin-3-yl)-3-(1H-pyrrolo[2,3-b]pyridin-2-yl)-1H-indazole]",3940 nM,1200 nM,–,43%,3300 nM,205 nM,–,–,–,–
"c1cnc2[nH]c(-c3n[nH]c4ccc(-c5cncc(CN6CCCCC6)c5)cc34)cc2c1 [Compound 267, 5-(5-(Piperidin-1-ylmethyl)pyridin-3-yl)-3-(1H-pyrrolo[2,3-b]pyridin-2-yl)-1H-indazole]",675 nM,458 nM,10 nM,51%,1670 nM,177 nM,–,–,–,–
"CC(C)CC(=O)Nc1cncc(-c2ccc3[nH]nc(-c4cc5c(-c6cccnc6)ccnc5[nH]4)c3c2)c1 [Compound 86, 3-Methyl-N-(5-(3-(4-(pyridin-3-yl)-1H-pyrrolo[2,3-b]pyridin-2-yl)-1H-indazol-5-yl)pyridin-3-yl)butanamide]",> 10000 nM,> 10000 nM,900 nM,104%,184 nM,550 nM,44.6%,25.9%,–,–
"c1cc(-c2ccnc3[nH]c(-c4n[nH]c5ccc(-c6cncnc6)cc45)cc23)ccn1 [Compound 139, 3-(4-(Pyridin-4-yl)-1H-pyrrolo[2,3-b]pyridin-2-yl)-5-(pyrimidin-5-yl)-1H-indazole]",> 10000 nM,> 10000 nM,–,17%,> 10000 nM,> 10000 nM,5.3%,14.5%,7.5%,43.1%
"COc1cncc(-c2ccc3[nH]nc(-c4cc5c(-c6ccoc6)ccnc5[nH]4)c3c2)c1 [Compound 692, 3-(4-(Furan-3-yl)-1H-pyrrolo[2,3-b]pyridin-2-yl)-5-(5-methoxypyridin-3-yl)-1H-indazole]",> 10000 nM,> 10000 nM,–,26%,> 10000 nM,> 10000 nM,0%,0%,20%,43.9%
"O=C(Nc1cncc(-c2ccc3[nH]nc(-c4cc5cccnc5[nH]4)c3c2)c1)C1CCCC1 [Compound 274, N-(5-(3-(1H-Pyrrolo[2,3-b]pyridin-2-yl)-1H-indazol-5-yl)pyridin-3-yl) cyclopentanecarboxamide]",656 nM,427 nM,–,30%,271 nM,18 nM,–,–,–,–
"CN1CCN(c2ccnc3[nH]c(-c4n[nH]c5ccc(-c6cncc(CNCc7ccccc7)c6)cc45)cc23)CC1 [Compound 248, N-Benzyl-1-(5-(3-(4-(4-methylpiperazin-1-yl)-1H-pyrrolo[2,3-b]pyridin-2-yl)-1H-indazol-5-yl)pyridin-3-yl)methanamine]",2170 nM,2260 nM,–,17%,3370 nM,7730 nM,–,–,–,–
"CC(C)(C)C(=O)Nc1cncc(-c2ccc3[nH]nc(-c4cc5c(-c6ccncc6)ccnc5[nH]4)c3c2)c1 [Compound 120, N-(5-(3-(4-(Pyridin-4-yl)-1H-pyrrolo[2,3-b]pyridin-2-yl)-1H-indazol-5-yl)pyridin-3-yl)pivalamide]",> 10000 nM,> 10000 nM,–,44%,> 10000 nM,> 10000 nM,10.7%,12.8%,36.6%,35.6%
"CN1CCN(c2ccnc3[nH]c(-c4n[nH]c5ccc(-c6cncc(NC(=O)CC7CCNCC7)c6)cc45)cc23)CC1 [Compound 641, N-(5-(3-(4-(4-Methylpiperazin-1-yl)-1H-pyrrolo[2,3-b]pyridin-2-yl)-1H-indazol-5-yl)pyridin-3-yl)-2-(piperidin-4-yl)acetamide]",> 10000 nM,> 10000 nM,–,17%,> 10000 nM,> 10000 nM,16.2%,23.5%,10.8%,26%
"CCCCC(=O)Nc1cncc(-c2ccc3[nH]nc(-c4cc5c(-c6ccncc6)ccnc5[nH]4)c3c2)c1 [Compound 131, N-(5-(3-(4-(Pyridin-4-yl)-1H-pyrrolo[2,3-b]pyridin-2-yl)-1H-indazol-5-yl)pyridin-3-yl)pentanamide]",> 10000 nM,> 10000 nM,–,18%,> 10000 nM,> 10000 nM,10.6%,6.3%,16.7%,31.5%
"Cn1cc(-c2ccc3[nH]nc(-c4cc5c(-c6cccnc6)ccnc5[nH]4)c3c2)cn1 [Compound 556, 5-(1-Methyl-1H-pyrazol-4-yl)-3-(4-(pyridin-3-yl)-1H-pyrrolo[2,3-b]pyridin-2-yl)-1H-indazole]",> 10000 nM,191 nM,–,28%,> 10000 nM,586 nM,0%,–,20%,–
